“And” between values parts separate entries of the source, which are not always exact repeats. Identical values can stand only once.
Legend:
SIRT2 = biological target: T1, SIRT2 (Homo sapiens, UniProt Q8IXJ6); assay: SIRT2 inhibition assay for thiomyristoyl peptides; format: biochemical
T1 sequence (Q8IXJ6 1-389): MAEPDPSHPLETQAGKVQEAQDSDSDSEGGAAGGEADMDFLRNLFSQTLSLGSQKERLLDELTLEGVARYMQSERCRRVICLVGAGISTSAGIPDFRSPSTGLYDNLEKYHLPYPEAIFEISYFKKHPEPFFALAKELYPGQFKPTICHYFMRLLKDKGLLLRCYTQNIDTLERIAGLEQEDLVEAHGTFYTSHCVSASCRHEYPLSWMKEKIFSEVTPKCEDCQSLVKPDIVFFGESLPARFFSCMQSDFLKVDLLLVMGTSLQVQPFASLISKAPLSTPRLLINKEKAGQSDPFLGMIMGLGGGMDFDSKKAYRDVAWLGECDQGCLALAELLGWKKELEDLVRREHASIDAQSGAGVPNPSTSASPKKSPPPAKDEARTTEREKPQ
Description: Assays were performed in 40-µL volumes at 37 °C in black, 384-well plates. […] Following incubation, the reaction started with the addition of the fluorogenic substrate (5 µM), and product formation was monitored by measuring the fluorescence intensity every 20 s for 5 min (SIRT2) in a BioTek Synergy H1 microplate reader at λex = 320 nm and λem = 408 nm (gain = 130 and read height = 7 mm). Initial rates were determined using the plot of fluorescence vs. time for linear portions of each curve. IC50 values were then determined using GraphPad Prism to fit a nonlinear regression to the normalized rates vs. inhibitor concentration.

[1] = test system: amber-obligate phagemid library; assay: Phage yield on expression of the amber-obligate phagemid library with ncAAs (cfu assay); set-up: species or system E. coli Top10; details: BuKRS

| activity at 0.000488281 µM (SIRT2; inhibitor 0.488281 nM) | %Activity, SIRT2 (SIRT2; inhibitor 0.488281 nM, 0.000488281 µM) | activity at 0.000976562 µM (SIRT2; inhibitor 0.976562 nM) | %Activity, SIRT2 (SIRT2; inhibitor 0.976562 nM, 0.000976562 µM) | activity at 0.00195312 µM (SIRT2; inhibitor 1.95312 nM) | %Activity, SIRT2 (SIRT2; inhibitor 1.95312 nM, 0.00195312 µM) | %Activity, SIRT2 (SIRT2; inhibitor 3.90625 nM, 0.00390625 µM) | activity at 0.015625 µM (SIRT2; inhibitor 15.625 nM) | %Activity, SIRT2 (SIRT2; inhibitor 15.625 nM, 0.015625 µM) | activity at 0.0625 µM (SIRT2; inhibitor 62.5 nM) | %Activity, SIRT2 (SIRT2; inhibitor 62.5 nM, 0.0625 µM) | activity at 0.125 µM (SIRT2; inhibitor 125 nM) | %Activity, SIRT2 (SIRT2; inhibitor 125 nM, 0.125 µM) | activity at 0.25 µM (SIRT2; inhibitor 250 nM) | %Activity, SIRT2 (SIRT2; inhibitor 250 nM, 0.25 µM) | %Activity, SIRT2 (SIRT2; inhibitor 500 nM, 0.5 µM) | activity at 1 µM (SIRT2; inhibitor 1000 nM) | %Activity, SIRT2 (SIRT2; inhibitor 1000 nM, 1 µM) | SMILES | %Activity, SIRT2 (SIRT2; inhibitor 7.8125 nM, 0.0078125 µM) | fold increase in particle yield vs no ncAA [1] |
| --- | --- | --- | --- | --- | --- | --- | --- | --- | --- | --- | --- | --- | --- | --- | --- | --- | --- | --- | --- | --- |
| 101% | 98.9615% | 72.4% | 83.3212% and 86.8904% and 88.3827% | 90.7% | 86.75% | 101.659% and 86.3725% and 107.923% | 83.3% | 84.6885% | 60.2% | 43.9326% | 22.5% | 19.1421% | 12.4% | 20.6592% | 1.575% and -2.11% and 0.5358% | 5.56% | 5.083% | CCCCCCCCCCCCCC(=S)NCCCC[C@H](NC(=O)OCc1ccccc1)C(=O)Nc1ccccc1 [TM, reference compound] | 82.8428% and 60.4593% and 105.944% and 110.889% |  |
|  |  |  |  |  |  |  |  |  |  |  |  |  |  |  |  |  |  | CCCC(=O)NCCCC[C@H](N)C(=O)O [compound 5, N ^Ɛ-butyryl-L-lysine] |  | ~100 fold |

Reference: article PMC7070036, “An amber obligate active site-directed ligand evolution technique for phage display” (Nature Communications, 2020)
